For one series, the system named is mouse melanoma (B16). In words: In vitro inhibition of tumor cell growth. The class given is cell-based. Particulars: B16 cell line. The text has this:
The comparative cell growth inhibitory activity of RAD's and SAD are reported (data in Table IV, supplementary material). The cell lines used are human lymphoblastic leukemia (CCRF-CEM), murine lymphocytic leukemia (P388) and lymphoid leukemia (L1210), and mouse melanoma (B16). […] In general, the cytotoxic potencies of the analogues are in the order: […]

The subject of another series is P388 cells. Nature of the series: Inhibition of nucleic acid synthesis in P388 cells in vitro. Format: cell-based, murine. The source says:
In addition to the P388 cells, this inhibitory activity in human carcinoma HT-29 grown in tissue culture has been also examined. The values of the drug concentration producing 50% inhibition of the incorporation of [^3 H]-thymidine and [^14 C] uridine into nucleic acid macromolecules are presented in Table V. These values are taken as estimates of the inhibition of DNA and RNA synthesis. […] Furthermore, the inhibitory activities of these analogues are three-to fivefold higher than AMD; the order of potency of the analogues for their inhibition of DNA synthesis is:
DNA and RNA synthesis in P388 and HT-29 cells lines was monitored in the presence of drugs, and the rates of inhibition of their synthesis were estimated from the amounts of [2-^14 C]-uridine and [^3 H]-thymidine into RNA and DNA, respectively, according to the methods described previously.
^a Human colon carcinoma in culture, IC50, drug concentration
producing a 50% inhibition of incorporation of precursor [^3 H]
thymidine into DNA and [^14 C] uridine into RNA in the cell lines,
isolated as acid preciptable materials. Data are average of replicate

For the next series, the system named is B16 melanoma. In words: In vivo antitumor activity against B16 melanoma. Set-up: species or system BDF1 mice. To be noted: for % ILS / survivors on day 65/total injected / MST (range), median survival time: at optimal dose, ip days 1, 5, 9; for MST (range), median survival time: range of days of death; for optimal dose: ip, days 1, 5, 9. On the procedure: ^a 0.2 mL of 1:5 (weight/volume) brei of B16 melanoma implanted
ip on day 0 in groups of nine BDF1 mice. Drugs administered ip^b
MST (range), median survival time in days (range of days for death of
individual animal). ^c % ILS (surv), percent increase in life span
(survivors on day 65/total injected).

A further series has as its system colon tumor 26. In words: In vivo activity against colon tumor 26. Also noted: species or system CDF1 mice. Particulars: three doses over 9-day period.
Series [1] relates to CX-1 human colon adenocarcinoma. In words: Chemotherapy of human colon CX-1 tumor heterotransplanted in nude mice. The class given is in vivo, human tumor in athymic mice.
The nature of the next series: Solubility in water. Particulars: for solubility in water: at 20° C. The class given is physicochemical. Here is the method: Synthesis of "Reverse" III AMD Analogue (RAD III, 3c). The synthesis of RAD III (3c) is shown schematically in Scheme I. Compound 4 was reacted with the benzyl ester of oxalacetic acid at 80° C. according to the procedure reported. The resulting product 5 with the CH2 COOCH2 C6 H5 substituent at the C-2 of the oxazole ring was debenzylated to 6, and compound 6 was coupled with excess 1,4-diaminobutane by DCC in pyridine. […] Like AMD and its other "reverse" analogues, RAD III (3c) is 16-fold more soluble in water at 4° C. than at 20° C.

The test system of series [2] is calf thymus DNA. To be noted: value given with references 2,7; cited from earlier work.
Series [3] has as its system calf thymus DNA. In words: Equilibrium binding constants from Scatchard plots of binding isotherms. Particulars: 0.01M phosphate buffer, pH 7.0 at 20° C. On the procedure: The equilibrium binding constants of RAD III (3c), determined from the Scatchard plots of binding isotherms with use of calf thymus DNA, are Kapp, 2.9×10^6 M^-1, and Bapp, 0.040 in 0.01M phosphate buffer, pH 7.0 at 20° C.

Another series has as its system low molecular weight DNA. Nature of the series: Viscometry experiment (intercalation into DNA). Format: binding. To be noted: DNA 0.5×10^5 to 1.0×10^5 daltons.
[4] abbreviates: [3H]thymidine incorporation, read-out: IC50, DNA synth.
The mark [5] stands for this setting: [14C]uridine incorporation, read-out: IC50, RNA synth.

≈ marks a conversion by molar mass, not a printed value. Like-named read-outs stand apart in the source and are kept apart here. *1 amine or outer side, *2 acyl side, *3 side chain or, on linkers, in order; H or OH if unused. Where a SMILES comes first, the peptide text is derived from it. Bridges are numbered along the chain shown (N, C = ends). Roman numbers before positions name the chains, in order. [ ]: non-standard residue; d: D form. Actinocin(9to1) = Cc1c2oc3c(C)ccc(C(=O)[*:1])c3nc-2c(C(=O)[*:2])c(N)c1=O; NMeV = CN[C@H](C(=O)O)C(C)C; Sar = CNCC(=O)O

`Cc1c2oc3c(C)c(O)c(N)c(C(=O)N[C@@H]4C(=O)N[C@H](C(C)C)C(=O)N5CCC[C@H]5C(=O)N(C)CC(=O)N(C)[C@@H](C(C)C)C(=O)O[C@@H]4C)c3nc-2c(C(=O)N[C@@H]2C(=O)N[C@H](C(C)C)C(=O)N3CCC[C@H]3C(=O)N(C)CC(=O)N(C)[C@@H](C(C)C)C(=O)O[C@@H]2C)c(N)c1=O` [SAD (2)]: the “cell growth inhibitory potency relative to AMD” value with mouse melanoma (B16) is “two to fourfold”. Further, the IC50 with P388 cells (setting [4]) worked out at 12 ± 4 nM. Moreover, in the series with P388 cells (setting [5]), the IC50 was found to be 15 nM. In the series with B16 melanoma, the “% ILS” value was found to be 96%; the “survivors on day 65/total injected” value was 4/9; the “MST (range), median survival time” value is recorded as 57(33-61) days; the optimal dose is on record as 300 μg/kg per inj. In the series with colon tumor 26, the “activity against colon tumor 26” value was “significant activity”, the “increase in %ILS over controls” value is recorded as 50-150% and the “increase of survival rate at 60 days” value is recorded as 10-40%. Also, the “% T/C, optimal” value in series [1] (dose 40 μg/kg iv once a week for three weeks, TST 15, observed day 22) amounted to 18%. Also, the “% T/C, optimal” value in series [1] (dose 55 μg/kg iv once a week for three weeks, TST 15, observed day 22) was 19%. The “% T/C, optimal” value in series [1] (dose 70 μg/kg iv once a week for three weeks, TST 15, observed day 32) is given as 5%.

Molecule `Cc1c2oc3c(C)ccc(C(=O)N[C@@H]4C(=O)N[C@H](C(C)C)C(=O)N5CCC[C@H]5C(=O)N(C)CC(=O)N(C)[C@@H](C(C)C)C(=O)O[C@@H]4C)c3nc-2c(C(=O)N[C@@H]2C(=O)N[C@H](C(C)C)C(=O)N3CCC[C@H]3C(=O)N(C)CC(=O)N(C)[C@@H](C(C)C)C(=O)O[C@@H]2C)c(N)c1=O` [AMD (1), Actinomycin D] (I: T[dV]P[Sar][NMeV] / II: T[dV]P[Sar][NMeV]; ester I:1-I:C, II:1-II:C; linker I:N-II:N via Actinocin(9to1)) showed a solubility in water in “Solubility in water” of 1000 µg/mL (≈ 797 µM). The IC50 in the series on P388 cells (setting [4]) was determined as 1100 ± 90 nM. Moreover, in the series with P388 cells (setting [5]), the IC50 was 50 ± 5 nM. In addition, in the series on B16 melanoma, the “% ILS” value is listed as 48%; the “survivors on day 65/total injected” value is reported as 2/9; the “MST (range), median survival time” value is given as 43(36-54) days; the optimal dose is recorded as 250 μg/kg per inj. Also, in the series with calf thymus DNA [2], the Bapp is given as 0.108 and the “Kapp (equilibrium binding constant)” value was 2.3e+07 M⁻¹.

In the case of `Cc1c2oc3c(C)c4oc(CC(=O)NCCCCN)nc4c(C(=O)N[C@@H]4C(=O)N[C@H](C(C)C)C(=O)N5CCC[C@H]5C(=O)N(C)CC(=O)N(C)[C@@H](C(C)C)C(=O)O[C@@H]4C)c3nc-2c(C(=O)N[C@@H]2C(=O)N[C@H](C(C)C)C(=O)N3CCC[C@H]3C(=O)N(C)CC(=O)N(C)[C@@H](C(C)C)C(=O)O[C@@H]2C)c(N)c1=O` [RAD III (3c)], the “fold more soluble in water at 4° C. than at 20° C.” value in the series “Solubility in water” (4° C. vs 20° C.) stood at 16 fold. Moreover, in “Solubility in water”, the solubility in water was 2100 µg/mL (≈ 1470 µM). For the same molecule, in the series with calf thymus DNA [3], the Bapp stood at 0.040 and the “Kapp (equilibrium binding constant)” value came to 2.9e+06 M⁻¹. For the same molecule, the “change in the intrinsic viscosity with increasing [ligand]/[DNA base pair]” value in the series on low molecular weight DNA was “failed to demonstrate any measurable change in the intrinsic viscosity”. The “cell growth inhibitory potency relative to AMD” value in the series with mouse melanoma (B16) is listed as “two to fourfold”. Further, the IC50 in the series with P388 cells (setting [4]) amounted to 430 ± 38 nM. The IC50 in the series on P388 cells (setting [5]) was determined as 55 ± 7 nM. Moreover, in the series with B16 melanoma, the “% ILS” value is reported as 114%; the “survivors on day 65/total injected” value is given as 6/9; the “MST (range), median survival time” value is 62(53-61) days; the optimal dose came out at 300 μg/kg per inj. The “activity against colon tumor 26” value with colon tumor 26 is listed as “significant activity”. Moreover, the “% T/C, optimal” value in series [1] (dose 75 μg/kg iv once a week for three weeks, TST 18, observed day 27) stood at 13%.

Consider `Cc1c2oc3c(C)c4oc(-c5ccccc5)nc4c(C(=O)N[C@@H]4C(=O)N[C@H](C(C)C)C(=O)N5CCC[C@H]5C(=O)N(C)CC(=O)N(C)[C@@H](C(C)C)C(=O)O[C@@H]4C)c3nc-2c(C(=O)N[C@@H]2C(=O)N[C@H](C(C)C)C(=O)N3CCC[C@H]3C(=O)N(C)CC(=O)N(C)[C@@H](C(C)C)C(=O)O[C@@H]2C)c(N)c1=O` [RAD II (3b)], for which, in the series on P388 cells (setting [4]), the IC50 is 780 ± 66 nM. Moreover, the IC50 in the series with P388 cells (setting [5]) was determined as 70 ± 5 nM. In the series on B16 melanoma, the “% ILS” value amounted to 103%; the “survivors on day 65/total injected” value is on record as 5/9; the “MST (range), median survival time” value is 59(53-59) days; the optimal dose was 300 μg/kg per inj.

The values above are taken from US4966962A, “Reverse analogue of actinomycin D” (Trustees of Boston University, priority 1988, dated 1990).
